One test concerns radicaux libres. As to the kind of experiment: Free radical scavenger activity (test not specified).
Another test has as its system canaux calciques. Particulars: see Spanish patent n°531.033; cited from earlier work.
The subject of test [1] is membrane hépatique du rat. As to the kind of experiment: Free radical scavenging in rat liver membranes: lipid peroxidation induced by Fe++/ascorbic acid, thiobarbituric acid-reactive substances. The format is biochemical. The following applies: 45 minutes at 37°C, substances reacting with ATB, read-out: CI50 (the source's name). The method, then: Les composés de la présente invention ont fait l'objet d'un essai de contrôle de leur aptitude à capter les radicaux libres engendrés par la membrane hépatique du rat stimulée par du Fe++/acide ascorbique (système connu pour induire une formation de radicaux libres).
1.- Activité de captage des radicaux libres dans la membrane hépatique du rat.
On a préparé des homogènats de foie de rat (1/10 p/v) dans du Ringer-Tris (50mM)-saccharose ([…]) de pH 7,4, après sacrifice de rats Wistar au moyen de CO2. On a découpé les foies en petits morceaux (1 à 2 mm) et on les a homogénéisés à 0°C dans un homogénéisateur Polytron. On a centrifugé les homogénats à 1000 x g pendant 10 minutes à 4°C et rejeté le culot. On a centrifugé le surnageant à 10 000 x g pendant 20 minutes et recueilli le culot, puis on l'a remis en suspension, dans le rapport 1/10, dans du Ringer-Tris (50 mM). On a utilisé des échantillons de la préparation immédiatement et on en a conservé à -20°C. […] Après 45 minutes à 37°C, on a ajouté 1 ml d'une solution contenant 0,5% d'acide thiobarbiturique (ATB) dans de l'acide trichloroacétique (ATC) à 20% dans chaque tube et après 15 minutes d'incubation à 95°C, on a déterminé par spectrophotométrie les substances réagissant avec l' A TB. On a réalisé pour toutes les expériences des témoins appropriés exempts du médicament.

A further test relates to tissu hépatique. As to the kind of experiment: Ischemia/reperfusion in short-term organ culture of rat liver, malonaldehyde by thiobarbituric acid reaction. The format is cell-based, rats Wistar. The following applies: 1 h, concentration inhibiting malonaldehyde production by 50%, 60 minutes ischemic anoxia, 60 minutes reoxygenation, read-out: CI50 (the source's name). The text has this: (§1) Les composés de la présente invention ont fait l'objet d'un essai de contrôle de leur aptitude à capter les radicaux libres engendrés par la membrane hépatique du rat stimulée par du Fe++/acide ascorbique (système connu pour induire une formation de radicaux libres). Les composés les plus actifs ont fait ensuite l'objet d'essais de contrôle de leur aptitude à inhiber la formation des radicaux libres par les neutrophiles humains stimulés par la N-formyl-L-méthionyl-L-leucyl-L-phénylalanine et à protéger le tissu hépatique, entretenu en culture, contre les lésions par ischémie/reperfusion.
3.- Ischémie/reperfusion dans une culture d'organe à court terme.
Pour ces études, on a prélevé des échantillons de tissu dans des groupes de 10 rats Wistar mâles anesthésiés au pentobarbital sodique (60 mg par kg, i.p.). On a isolé les foies et on les a divisés en cinq échantillons d'environ 0,4 g qu'on a pesés et transférés dans des fioles d'Erlenmeyer de 50 ml bouchées contenant de la solution de Tris-Ringer saturée d'argon (anoxique).
On a purgé à l'argon les fioles d'Erlenmeyer de 50 ml contenant les échantillons du tissu et 3,9 ml de tampon de Tris-Ringer traité à l'argon, on les a rebouchées et on les a conservées au bain-marie à 37°C sans agitation pendant 50 minutes pour provoquer l'ischémie. La subdivision du tissu et l'agitation ont été évitées à ce stade pour réduire au minimum la diffusion des métabolites depuis le tissu jusque dans le milieu, qui n'aurait pu se faire au cours d'une ischémie in vivo.
Division du tissu et addition du médicament.
Après 50 minutes d'ischémie, on a divisé les tissus avec des ciseaux d'ophtalmologie en fragments d'environ 1 mm de côté. Du fait que l'argon est plus dense que l'air, son déplacement hors de la fiole et son remplacement par l'oxygène sont restés minimaux pendant le découpage et l'addition ultérieure du médicament. Ensuite, on a ajouté 0,1 ml de tampon de Tris-Ringer contenant l'un des composés à évaluer ou de l'hydroxy- toluène butylé (HTB), pour arriver à la concentration finale souhaitée; on a sélectionné l'hydroxytoluène butylé du fait que c'est un antioxydant classique qui gêne la propagation en chaîne des radicaux. On a procédé à ces additions avec rapidité pour éviter d'introduire de l'oxygène. On a rebouché les fioles et on les a secouées modérément pour mélanger le tissu avec le médicament, puis on les a remises au bain-marie pendant 10 minutes pour la mise a l'équilibre avant la réoxygénation.
Après 60 minutes d'anoxie ischémique, on a réoxygéné les fioles par barbotage vif d'oxygène gazeux à 100% dans les échantillons pendant 1 minute et par purge de la phase gazeuse avec de l'oxygène (de l'argon remplaçant l'oxygène à ce stade dans les expériences témoins d'ischémie sans réoxygénation). […]

For the next test, the system named is neutrophiles humains. As to the kind of experiment: Free radical production by FMLPA-stimulated human neutrophils (cytochrome C reduction). The format is cell-based. The following applies: Neutrophil, reduced cytochrome C at 550 nm, read-out: CI50 (the source's name).
From the text: as §1
2.- Dosage des radicaux libres dans les polymorphonucléaires.
On a isolé des neutrophiles humains chez des donneurs volontaires bien portants par centrifugation sur gradient dans du Ficol Hypaque (Pharmacia). On a mélangé 100 µl de suspension de cellules (nombre final 500 000 cellules) avec 700 µl de solution physiologique tamponnée au phosphate et 50 µl des composés expérimentaux en solution dans du DMSO. On a utilisé comme témoin positif 25 µl d'une solution à 1 mg par ml de superoxyde dismutase dans du DMSO (à savoir 25 µg de SOD). On a préincubé les tubes à 37°C pendant 10 minutes sous agitation lente.
On a stimulé les neutrophiles par addition de 100 µl de cytochrome C type VI (1 mM) (Sigma) dans de la solution physiologique tamponnée au phosphate, de 50 µl de N-formyl-L-méthionyl-L-leucyl-L-phénylalanine (FMPLA) (10 µM) (Sigma F 3506) et par incubation pendant 5 minutes à 37°C. Après refroidissement à 0°C pour arrêter la réaction, on a centrifugé les tubes à 8000 xg et on a déterminé par spectrophotométrie à 550 nm le cytochrome C réduit, en utilisant des tubes contenant du SOD comme témoins.

For the compound `CCOC(=O)C1=C(C)NC(C)=C(C(=O)OC)C1c1cc(OC)c(O)c(OC)c1` (centres unmarked), in the test with radicaux libres, the “activité comme capteur de radicaux libres” value is “intéressante activité”. Further, the “activité de blocage des canaux calciques” value with canaux calciques is recorded as “pratiquement exempt”.

`CCOC(=O)C1=C(C)NC(C)=C(C(=O)OC)C1c1cc(C(C)(C)C)c(O)c(C(C)(C)C)c1` (centres unmarked) [Exemple 1, 2,6-Diméthyl-4-(4'-hydroxy-3',5'-di-t-butylphényl)-1,4-dihydropyridine-3,5-dicarboxylatede méthyle et d'éthyle]: the IC50 is 780 nM in test [1], 170 nM with tissu hépatique and 10.9 µM in the test with neutrophiles humains.

Regarding `CCOC(=O)C1=C(C)NC(C)=C(C(=O)OC(C)C)C1c1cc(C(C)(C)C)c(O)c(C(C)(C)C)c1` (centres unmarked) [Exemple 2, 2,6-diméthyl-4-(4'-hydroxy-3',5'-di-t-butylphényl)-1,4-dihydropyridine-3,5-dicarboxylate d'éthyle et d'isopropyle], the IC50 was 290 nM in test [1], 200 nM with tissu hépatique and 10.2 µM with neutrophiles humains.

Consider `COC(=O)C1=C(C)NC(C)=C(C(=O)OC)C1c1cc(C(C)(C)C)c(O)c(C(C)(C)C)c1` [Exemple 3, 2,6-Diméthyl-4-(4'-hydroxy-3',5'-di-t-butylphényl)-1,4-dihydropyridine-3,5-dicarboxylatede diméthyle], for which the IC50 in test [1] is 1250 nM.

`CCOC(=O)C1=C(C)NC(C)=C(C(=O)OCC2COC(C)(C)O2)C1c1cc(C(C)(C)C)c(O)c(C(C)(C)C)c1` (centres unmarked) [Exemple 4, 2,6-diméthyl-4-(4'-hydroxy-3',5'-di-t-butylphényl)-1,4-dihydropyridine-3,5-dicarboxylate d'éthyle etde (2,2-diméthyl-1,3-dioxolan-4-yl)méthyle]: in test [1], the IC50 came to 1250 nM.

With `CCOC(=O)C1=C(C)NC(C)=C(C(=O)OCC(O)CO)C1c1cc(C(C)(C)C)c(O)c(C(C)(C)C)c1` (centres unmarked) [Exemple 5, 2,6-diméthyl-4-(4'-hydroxy-3',5'-di-t-butyl-phényl)-1,4-dihydropyridine-3,5-dicarboxylate d'éthyle etde 2,3-dihydroxypropyle], the IC50 in test [1] was 50000 nM.

Turning to `CCOC(=O)C1=C(C)NC(C)=C(C(=O)OCCN(C)Cc2ccccc2)C1c1cc(C(C)(C)C)c(O)c(C(C)(C)C)c1` (centres unmarked) [Exemple 6, chlorhydratede 2,6-diméthyl-4-(4'-hydroxy-3',5'-di-t-butylphényl)-1,4-dihydropyridine-3,5-dicarboxylate d'éthyle etde 2-(N-méthyl-N-benzylamino)éthyle], the IC50 in test [1] was 20000 nM.

In the case of `CCOC(=O)C1=C(C)NC(C)=C(C(=O)OCCNC)C1c1cc(C(C)(C)C)c(O)c(C(C)(C)C)c1` (centres unmarked) [Exemple 7, chlorhydratede 2,6-diméthyl-4-(4'-hydroxy-3',5'-di-t-butylphényl)-1,4-dihydropyridine-3,5-dicarboxylate d'éthyle etde 2-(méthylamino)éthyle], the IC50 in test [1] came to 2500 nM.

Regarding `CCOC(=O)C1=C(C)NC(C)=C(C(=O)OCc2ccccc2)C1c1cc(C(C)(C)C)c(O)c(C(C)(C)C)c1` (centres unmarked) [Exemple 8, 2,6-diméthyl-4-(4'-hydroxy-3',5'-di-t-butylphényl)-1,4-dihydropyridine-3,5-dicarboxylate d'éthyle etde benzyle], the IC50 in test [1] was found to be 1000 nM.

`CCOC(=O)C1=C(C)NC(C)=C(C(=O)O)C1c1cc(C(C)(C)C)c(O)c(C(C)(C)C)c1` (centres unmarked) [Exemple 9, 2,6-diméthyl-4-(4'-hydroxy-3',5'-di-t-butylphényl)-5-carbéthoxy-3-carboxy-1,4-dihydropyridine]: the IC50 in test [1] came to 2500 nM.

For the compound `CCOC(=O)C1=C(C)NC(C)=C(C(=O)OCC(C)C)C1c1cc(C(C)(C)C)c(O)c(C(C)(C)C)c1` (centres unmarked) [Exemple 10, 2,6-diméthyl-4-(4'-hydroxy-3',5'-di-t-butylphényl)-1,4-dihydropyridine-3,5-dicarboxylate d'éthyle et d'isobutyle], the results for the IC50 (in test [1]; with tissu hépatique; in the test with neutrophiles humains) were 370 nM, 200 nM and 10.5 µM, respectively.

`CC1=C(C(=O)OCC(C)C)C(c2cc(C(C)(C)C)c(O)c(C(C)(C)C)c2)C(C(=O)OCC(C)C)=C(C)N1` [Exemple 11, 2,6-diméthyl-4-(4'-hydroxy-3',5'-di-t-butylphényl)-1,4-dihydropyridine-3,5-dicarboxylatede diisobutyle]: the IC50 in test [1] is 1000 nM.

Consider `Cc1cc(C(C)(C)C)c(O)c(C(C)(C)C)c1` [HTB, hydroxytoluène butylé, reference compound], for which the IC50 in test [1] came out at 1500 nM; with tissu hépatique, 1750 nM; in the test on neutrophiles humains, 20 µM.

For the compound `Cc1c(C)c2c(c(C)c1O)CCC(C)(CCCC(C)CCCC(C)CCCC(C)C)O2` (stereo not drawn) [α-Tocophérol, reference compound], the IC50 in test [1] was determined as 15000 nM.

The record behind these values is EP0500426A1, “2,6-Dimethyl-4-(4'-hydroxy-3',5'-di-t-butylphenyl)-1,4-dihydropyridine derivatives, process for their preparation and their use as free radical scavengers” (Instituto de Investigacion Y Desarrollo Quimico-Biologico …, priority 1991, dated 1992).
